We go through 24 molecules from patent publication US20250345329A1, “HETEROARYL DERIVATIVE COMPOUND AND USES THEREOF” (VORONOI, INC., priority 2022, published 2025).

This assay has as its system Ba/F3 expressing EGFR Del19/T790M/C797S mutations. The assay is described as follows: Inhibitory activity on proliferation of Ba/F3 cell overexpressing EGFR C797S (Cell Titer-Glo). In kind it is cell-based. To be noted: Mus musculus, BaF3; 72 hours treatment, cell growth rate vs control; read-out: Ba/F3 (EGFR DTC) GI50. On the procedure:
<Experimental Example 2> Evaluation of Inhibitory Activity on Proliferation of Ba/F3 Cell Overexpressing EGFR C797S
The following experiments were performed to evaluate the inhibitory activity of the compounds according to the present invention on the proliferation of Ba/F3 expressing EGFR Del19/T790M/C797S mutations.
Ba/F3 cells were cultured in RPMI-1640 medium supplemented with 10% fetal bovine serum (FBS), and 3000 cells were seeded into each well of a white clear bottom 96 well plate (Corning) 24 hours prior to compound treatment. The compounds were diluted in dimethyl sulfoxide (3-fold dilution, total of 12 concentrations) and injected at 1 μl each so that the final concentration was […] to 5 μM. After 72 hours post treatment with compounds, living cells were reacted in a 37° C., CO2 incubator for […], followed by 10 minutes at room temperature using Cell Titer-Glo luminescent cell-viability reagent (Promega), and the luminescence intensity thereof was measured using a reader (SynergyNeo2, Biotek). The result values were calculated as a cell growth rate (%) compared to the control group. GI50 values were calculated using the GraphPad Prism version 8.4.3 (GraphPad software Inc., San Diego) program.
In the case of `CC(C)S(=O)(=O)CC1CN(C(=O)c2cnc3cc2N[C@@H](C)CCOc2c(cnn2C)-c2nccc(n2)N3)C1` [Example 121, (S)-(1^1,6-methyl-1^1H-9-oxa-3,5-diaza-2(2,4)-pyrimidina-4(2,4)-pyridina-1(4,5)-pyrazolacyclo-nonaphane-4^5-yl)(3-((isopropylsulfonyl)methyl)azetidin-1-yl)methanone], the GI50 is less than 500 nM. The value for `CO[C@H]1CCN(c2nccc(Nc3cc(NC(C)C)c(C(=O)N(C)CCN(C)C)cn3)n2)C[C@H]1F` (relative stereo) [Example 29, N-(2-(dimethylamino)ethyl)-6-((2-(cis-3-fluoro-4-methoxypiperidin-1-yl)pyrimidin-4-yl)amino)-4-(isopropylamino)-N-methylnicotinamide] was 500 to 5000 nM; that for `C[C@H]1CCOc2c(cnn2C)-c2nccc(n2)Nc2cc(c(C(=O)Nc3cccc(CS(C)(=O)=O)c3)cn2)N1` [Example 125, (S)-1^1,6-dimethyl-N-(3-((methyl-sulfonyl)meth-yl)phenyl)-1^1H-9-oxa-3,5-diaza-2(2,4)-pyrimidina-4(2,4)-pyridina-1(4,5)-pyrazolacyclo-nonaphane-4^5-carboxamide] was 500 to 5000 nM; that for `CC(C)Nc1cc(Nc2ccnc(-c3cnn(S(=O)(=O)C4CC4)c3)n2)ncc1C(=O)N1CC(CS(=O)(=O)C(C)C)C1` [Example 130, (6-((2-(1-(cyclopropylsulfonyl)-1H-pyrazol-4-yl)pyrimidin-4-yl)amino)-4-(isopropylamino)pyri-din-3-yl)(3-((isopropylsulfonyl)methyl)azetidin-1-yl)methanone] was less than 500 nM.

Turning to `CC(C)Nc1cc(Nc2ccnc(-c3ccc(O)c(C=O)c3)n2)ncc1C(=O)N1C[C@H](CS(C)(=O)=O)[C@H]1C` [Example 133, 2-hydroxy-5-(4-((4-(isopropylamino)-5-((2R,3S)-2-methyl-3-((methyl-sulfonyl)meth-yl)azetidine-1-carbonyl)pyridin-2-yl)amino)pyrimidin-2-yl)benzaldehyde], the GI50 was 500 to 5000 nM. For `CO[C@H]1CCN(c2nccc(Nc3cc(NC(C)C)c(C(=O)NCCS(C)(=O)=O)cn3)n2)C[C@H]1F` [Example 94, 6-((2-((3R,4S)-3-fluoro-4-methoxypiperidin-1-yl)pyrimidin-4-yl)amino)-4-(isopropylamino)-N-(2-(methylsulfonyl)ethyl) nicotinamide], the GI50 was 500 to 5000 nM. Next, `C[C@H]1CCOc2c(cnn2C)-c2nccc(n2)Nc2cc(c(C(=O)NCC(F)(F)C(F)(F)F)cn2)N1` [Example 103, (S)-1^1,6-dimethyl-N-(2,2,3,3,3-pentafluoropropyl)-1^1H-9-oxa-3,5-diaza-2(2,4)-pyrimidina-4(2,4)-pyridina-1(4.,5)-pyrazolacyclo-nonaphane-4^5-carboxamide]: less than 500 nM; `C[C@H]1CCOc2c(cnn2C)-c2nccc(n2)Nc2cc(c(C(=O)Nc3cc(N4CCN(C)CC4)cc(N(C)S(C)(=O)=O)c3)cn2)N1` [Example 114, (S)-1^1,6-dimethyl-N-(3-(N-methyl-methylsulfonami-do)-5-(4-methylpiperazin-1-yl)phenyl)-1^1H-9-oxa-3,5-diaza-2(2,4)-pyrimidina-4(2,4)-pyridina-1(4,5)-pyrazolacyclo-nonaphane-4^5-carboxamide]: less than 500 nM; `CO[C@H]1CCN(c2nccc(Nc3cc(NC(C)C)c(C(=O)NCC4CCCC4)cn3)n2)C[C@H]1F` [Example 91, N-(cyclopentylmethyl)-6-((2-(cis-3-fluoro-4-methoxypiperidin-1-yl)pyrimidin-4-yl)amino)-4-(isopropylamino)nico-tinamide]: 500 to 5000 nM. The value for `CO[C@H]1CCN(c2cc(Nc3ncc(C(=O)NCCS(C)(=O)=O)c(NC(C)C)n3)ccn2)C[C@H]1F` [Example 95, 2-((2-((3R,4S)-3-fluoro-4-methoxypiperidin-1-yl)pyridin-4-yl)amino)-4-(isopropylamino)-N-(2-(methylsulfonyl)ethyl) pyrimidin-5-carboxamide] was 500 to 5000 nM.

In the case of `Cc1cc2cc(n1)-c1cnn(C)c1OCC[C@H](C)Nc1cc(ncc1C(=O)NCCC(F)(F)F)N2` [Example 124, (S)-1^1,2^6,6-trimethyl-N-(3,3,3-trifluoropropyl)-1^1H-9-oxa-3,5-diaza-2,4(2,4)-dipyridina-1(4,5)-pyrazolacyclo-nonaphane-4^5-carboxamide], the GI50 was 500 to 5000 nM. Next, `CC(C)Nc1cc(Nc2ccnc(-c3cnn(S(=O)(=O)C4CC4)c3)n2)ncc1C(=O)NC[C@@H](F)C(C)(C)O` [Example 132, (R)-6-((2-(1-(cyclopropylsulfonyl)-1H-pyrazol-4-yl)pyrimidin-4-yl)amino)-N-(2-fluoro-3-hydroxy-3-methylbutyl)-4-(isopropylamino)nico-tinamide]: less than 500 nM; `CO[C@H]1CCN(c2nccc(Nc3cc(NC(C)C)c(C(=O)Nc4cnn(S(=O)(=O)C5CC5)c4)cn3)n2)C[C@H]1F` [Example 33, N-(1-(cyclopropylsulfonyl)-1H-pyrazol-4-yl)-6-((2-(cis-3-fluoro-4-methoxypiperidin-1-yl)pyrimidin-4-yl)amino)-4-(isopropylamino)nico-tinamide]: 500 to 5000 nM. For the molecule `CC(C)Nc1nc(Nc2ccnc(-c3cnn(S(=O)(=O)C4CC4)c3)c2)ncc1C(=O)NCCCC(F)(F)F` [Example 92, 2-((2-(1-(cyclopropylsulfonyl)-1H-pyrazol-4-yl)pyridin-4-yl)amino)-4-(isopropylamino)-N-(4,4,4-trifluorobutyl)pyrimi-din-5-carboxamide], the GI50 is 500 to 5000 nM. Next, `CC(C)Nc1cc(Nc2ccnc(-c3cnn(C(=O)C4CC4)c3)n2)ncc1C(=O)NCC#N` [Example 87, N-(cyanomethyl)-6-((2-(1-(cyclo-propanecarbonyl)-1H-pyrazol-4-yl)pyrimidin-4-yl)amino)-4-(isopropylamino)nico-tinamide]: 500 to 5000 nM. The value for `CO[C@@H]1CCN(c2nccc(Nc3cc(NC(C)C)c(C(=O)N4CC(CS(=O)(=O)C(C)C)C4)cn3)n2)C[C@@H]1F` [Example 131, (6-((2-(cis-3-fluoro-4-methoxypiperidin-1-yl)pyrimidin-4-yl)amino)-4-(isopropylamino)pyri-din-3-yl)(3-((isopropylsulfonyl)methyl)azetidin-1-yl)methanone] was 500 to 5000 nM; that for `CC(=O)c1cc(-c2nccc(Nc3cc(NC(C)C)c(C(=O)N4C[C@H](CS(C)(=O)=O)[C@H]4C)cn3)n2)ccc1O` [Example 134, 1-(2-hydroxy-5-(4-((4-(isopropylamino)-5-((2R,3S)-2-methyl-3-((methylsulfonyl)meth-yl)azetidine-1-carbonyl)pyridin-2-yl)amino)pyrimidin-2-yl)phenyl)ethan-1-one] was 500 to 5000 nM; that for `COCCN(C)C(=O)c1cnc(Nc2ccnc(N3CC[C@H](OC)[C@H](F)C3)n2)cc1NC(C)C` (relative stereo) [Example 30, 6-((2-(cis-3-fluoro-4-methoxypiperidin-1-yl)pyrimidin-4-yl)amino)-4-(isopropylamino)-N-(2-methoxyethyl)-N-methylnicotinamide] was 500 to 5000 nM.

For the molecule `CO[C@H]1CCN(c2cc(Nc3ncc(C(=O)NCCCC(F)(F)F)c(NC(C)C)n3)ccn2)C[C@H]1F` [Example 93, 2-((2-((3R,4S)-3-fluoro-4-methoxypiperidin-1-yl)pyridin-4-yl)amino)-4-(isopropylamino)-N-(4,4,4-trifluorobutyl)pyrimi-dine-5-carboxamide], the GI50 lay in the range of 500 to 5000 nM. For the molecule `C[C@H]1CCOc2c(cnn2C)-c2cc(ccn2)Nc2cc(c(C(=O)NCCC(F)(F)F)cn2)N1` [Example 123, (S)-1^1,6-dimethyl-N-(3,3,3-trifluoropropyl)-1^1H-9-oxa-3,5-diaza-2,4(2,4)-dipyridina-1(4,5)-pyrazolacyclo-nonaphane-4^5-carboxamide], the GI50 was less than 500 nM. As to `C[C@H]1CCOc2c(cnn2C)-c2nccc(n2)Nc2cc(c(C(=O)NCCCC(F)(F)F)cn2)N1` [Example 88, (S)-1^1,6-dimethyl-N-(4,4,4-trifluorobutyl)-1^1H-9-oxa-3,5-diaza-2(2,4)-pyrimidina-4(2,4)-pyridina-1(4,5)-pyrazolacyclo-nonaphane-4^5-carboxamide], the GI50 was less than 500 nM.

As to `COCCN(C)C(=O)c1cnc(Nc2ccnc(-c3cnn(S(=O)(=O)C4CC4)c3)n2)cc1NC(C)C` [Example 27, 6-((2-(1-(cyclopropylsulfonyl)-1H-pyrazol-4-yl)pyrimidin-4-yl)amino)-4-(isopropylamino)-N-(2-methoxyethyl)-N-methylnicotinamide], the GI50 lay within 500 to 5000 nM. Take `C[C@H]1CCOc2c(cnn2C)-c2nccc(n2)Nc2cc(c(C(=O)NCCC(F)(F)F)cn2)N1` [Example 89, (S)-1^1,6-dimethyl-N-(3,3,3-trifluoropropyl)-1^1H-9-oxa-3,5-diaza-2(2,4)-pyrimidina-4(2,4)-pyridina-1(4,5)-pyrazolacyclo-nonaphane-4^5-carboxamide]: the GI50 is less than 500 nM. The value for `CO[C@H]1CCN(c2nccc(Nc3cc(NC(C)C)c(C(=O)Nc4cc(N5CCN(C)CC5)cc(C(F)(F)F)c4)cn3)n2)C[C@H]1F` [Example 24, 6-((2-(cis-3-fluoro-4-methoxypiperidin-1-yl)pyrimidin-4-yl)amino)-4-(isopropylamino)-N-(3-(4-methylpiperazin-1-yl)-5-(trifluoromethyl)phe-nyl)nicotinamide] was 500 to 5000 nM.
